According to US20080220416A1, “Compositions for Inhibiting Cell Growth and Inducing Apoptosis in Cancer Cells and Methods of Use Thereof” (THE BOARD OF TRUSTEES OF THE UNIVERSITY OF ILLINOI, priority 2004, published 2008):
Square brackets hold non-standard residues; d marks the D form. Peptide text beside a SMILES is read from it. * marks the point of attachment. Nle = CCCC[C@H](N)C(=O)O; Cbz = O=C(OCc1ccccc1)*

Legend:
[1] = system: Human Mammary Epithelial Cells (HMEC); experiment: Proliferation of normal breast cells (HMEC) after siRNA; type: cell-based; conditions: siRNA transfection
Description: An invasive, estrogen-independent breast cancer cell line that spontaneously expresses high levels of Notch-1 and -4, MDA-MB231, and normal human breast cells were used to investigate whether inhibition of Notch activation or expression affects the biological behavior of breast cancer cells. […] Sequence specificity was determined by BLAST searches which determined the uniqueness of the sequences. […] Transfected cells were identified by Streptavidin-horseradish peroxidase staining (Vectastain) and counted. […]
Cytotoxicity and growth of transfected cells were estimated by a standard assay used for cancer drug screening, through the total amount of TCA-precipitated cell proteins after drug treatment (Likhitwitayawuid, K et al., 1993, J Nat Prod 56:30-38): 200 μl of cell suspension (10^5 cells/ml) were added to each well in a 96-well plate. […] Plates were shaken for 5-10 minutes and OD at 490 nm (OD490) was recorded via ELISA reader. […] After removal of the non-invading cells from the interior of the inserts, stained invading cells were lysed in 10% acetic acid and OD595 was determined.

RJ002L melanoma cells = experiment: Bortezomib in RJ002L melanoma cells: sub-G0 DNA content by FACS and kinetic analysis; type: cell-based, human
Description: To assess the effect of proteasome inhibitors on the cell lines, the cells were grown in suitable culture media as described above. Highly proliferating cells (i.e., cells that had reached approximately 30% confluency) were exposed to the inhibitors as described below. The culture media was replenished with media containing proteasome inhibitors at various concentrations and the cells were incubated for 24 hours prior to harvesting the cells for further analysis.
Following treatment with the proteasome inhibitors, the melanoma and melanocyte cell cultures were assayed for apoptotic cells using the APO TARGET Annexin V FITC staining kit (Biosource, Camarillo, Calif.) according to the manufacturer's instructions followed by flow cytometric analysis using FACScaliber (Becton Dickinson, Palo Alto, Calif.) as described in Qin, J. et al., 2001, Nat Med 7: 385-386. In some cases, cell cycle and apoptosis analysis was measured using propidium iodide staining and flow cytometry as described. Cells with DNA content less than the G0 amount of untreated cells were considered apoptotic. For cell analysis, DNA histograms were analyzed using MultiCycle for Windows (Phoenix Flow Systems, San Diego, Calif.) as described in Denning, M. F. et al., 1998, J Biol Chem 273: 29995-30002.
The ability of bortezomib to induce apoptosis in RJ002L cells was assayed by kinetic analysis. RJ002L cells were incubated with 1.0 μM bortezomib for 24 hours. At various time points during the 24 hours, the cells were assayed for apoptosis using APO TARGET Annexin V-FITC staining kits (Biosource, Camerillo, Calif.) according to manufacturer's instructions. The relative percentage of cells undergoing apoptosis was quantified by flow cytometric analysis using FACSCaliber (Becton Dickinson, Palo Alto, Calif.) as described in Qin J et al., 2004, Mol Cancer Ther 3:895-902.

[2] = system: cytochrome C and Smac/DLABLO; experiment: Mitochondrial integrity by Western blot in RJ002L melanoma cells; type: cell-based, human; conditions: 10 μM
Description: Western blot analyses following z-Leu-Leu-Nle-CHO and control treatment of RJ002L melanoma cells were performed to determine the effect of z-Leu-Leu-Nle-CHO on pro-survival and pro-apoptotic proteins. Whole cell extracts were prepared and analyzed as described by Denning, M. F. et al., 1998, J Biol Chem 273: 29995-30002, 1998. The enriched mitochondria pellet and mitochondria-free cytosol of melanoma cells were prepared with the APO ALERT cell fraction kit (Clontech Laboratories, Inc. Palo Alto, Calif.) according to the manufacturer's instructions. For Western blot analysis, equal amounts of protein extracted from each sample (20-30 μg) were loaded into pre-cast 7% NuPAGE Tris-acetate gels or 4-12% NuPAGE Bis-tris gels (Invitrogen). Proteins were separated by SDS-PAGE and transferred to polyvinylidene difluoride membranes (Bio-Rad, Hercules, Calif.) using Invitrogen's buffering system. The indicated primary antibodies were incubated for indicated period of time, washed, and visualized by incubation with horseradish peroxidase-conjugated secondary antibodies and chemiluminescent reagents (Roche Diagnostics Corporation, Indianapolis, Ind.). […]
Mitochondrial integrity before and after exposure to z-Leu-Leu-Nle-CHO was evaluated using Western blot analysis as described above.

## 5′-AAGTGTCTGAGGCCAGCAAGA-3′ [Notch-1 siRNA]
[1]
  proliferation: inhibits proliferation of normal breast cells

## CC(C)C[C@H](NC(=O)[C@H](Cc1ccccc1)NC(=O)c1cnccn1)B(O)O [bortezomib, N-(2-pyrazine)carbonyl-L-phenylalanine-L-leucine boronic acid]
RJ002L melanoma cells; 0.01 μM, 24 hours
  cells with sub-G0 DNA content by FACS analysis: 2%
RJ002L melanoma cells; 0.1 μM, 24 hours
  apoptotic cells: 20%
RJ002L melanoma cells; 1 μM or 10 μM, 24 hours
  apoptotic cells: 29-30%
RJ002L melanoma cells; 1.0 μM, up to 24 hours
  kinetic analysis of apoptosis: prominent apoptosis was detected at 18- and 24-hr time points
RJ002L melanoma cells; 24 hours
  increase in apoptotic cells, 0.1 μM versus 0.01 μM: 10 fold

## CCCC[C@@H](C=O)NC(=O)[C@H](CC(C)C)NC(=O)[C@H](CC(C)C)NC(=O)OCc1ccccc1 [z-Leu-Leu-Nle-CHO, N-benzyloxycarbonyl-leucyl-leucyl-norleucinal] (Cbz-Leu-Leu-[Nle]-aldehyde)
[2]
  release of cytochrome C and Smac/DLABLO from mitochondria: released into the cytoplasm of RJ002L melanoma cells as early as 1 hr
